We go through 35 compounds from patent US6903113B2, “Urea substituted imidazopyridines” (3M Innovative Properties Company, priority 2000, dated 2005).

One test concerns interferon (α). Nature of the test: Cytokine Induction in Human Cells: interferon (α) by ELISA. It is filed as cell-based. Further details: key to Lowest Effective Concentration Interferon: A “*” indicates that no induction was seen at any of the tested concentrations. The settings on record: human PBMC, 18 to 24 hours incubation, compounds generally tested at 30-0.014 μM; for minimal effective concentration: read-out: Lowest Effective Concentration Interferon. From the text: (§1) An in vitro human blood cell system is used to assess cytokine induction. Activity is based on the measurement of interferon and tumor necrosis factor (α) (IFN and TNF, respectively) secreted into culture media as described by Testerman et. al. In “Cytokine Induction by the Immunomodulators Imiquimod and S-27609”, Journal of Leukocyte Biology, 58, 365-372 (September, 1995).
(§2) Whole blood from healthy human donors is collected by venipuncture into EDTA vacutainer tubes. Peripheral blood mononuclear cells (PBMC) are separated from whole blood by density gradient centrifugation using Histopaque®-1077. Blood is diluted 1:1 with Dulbecco's Phosphate Buffered Saline (DPBS) or Hank's Balanced Salts Solution (HBSS). The PBMC layer is collected and washed twice with DPBS or HBSS and resuspended at 4×10^6 cells/mL in RPMI complete. The PBMC suspension is added to 48 well flat bottom sterile tissue culture plates (Costar, Cambridge, Mass. or Becton Dickinson Labware, Lincoln Park, N.J.) containing an equal volume of RPMI complete media containing test compound.
(§3) The compounds are solubilized in dimethyl sulfoxide (DMSO). The DMSO concentration should not exceed a final concentration of 1% for addition to the culture wells. The compounds are generally tested at concentrations ranging from 30-0.014 μM.
(§4) The solution of test compound is added at 60 μM to the first well containing RPMI complete and serial 3 fold dilutions are made in the wells. The PBMC suspension is then added to the wells in an equal volume, bringing the test compound concentrations to the desired range (30-0.014 μM). The final concentration of PBMC suspension is 2×10^6 cells/mL. The plates are covered with sterile plastic lids, mixed gently and then incubated for 18 to 24 hours at 37° C. in a 5% carbon dioxide atmosphere.
(§5) Following incubation the plates are centrifuged for 10 minutes at 1000 rpm (˜200×g) at 4° C. The cell-free culture supernatant is removed with a sterile polypropylene pipet and transferred to sterile polypropylene tubes. Samples are maintained at −30 to −70° C. until analysis. The samples are analyzed for interferon (α) by ELISA and for tumor necrosis factor (α) by ELISA or IGEN Assay
Interferon (α) concentration is determined by ELISA using a Human Multi-Species kit from PBL Biomedical Laboratories, New Brunswick, N.J. Results are expressed in pg/mL.
(§6) The table below lists the lowest concentration found to induce interferon and the lowest concentration found to induce tumor necrosis factor for each compound.

Test [1] relates to tumor necrosis factor (α). Nature of the test: Cytokine Induction in Human Cells: tumor necrosis factor (α) by ELISA or IGEN Assay. It is filed as cell-based. Details: key to Lowest Effective Concentration Tumor Necrosis Factor: A “*” indicates that no induction was seen at any of the tested concentrations. The following applies: human PBMC, 18 to 24 hours incubation, compounds generally tested at 30-0.014 μM; for minimal effective concentration: read-out: Lowest Effective Concentration Tumor Necrosis Factor.
Text: as §1, §2, §3, §4, §5
Tumor necrosis factor (α) (TNF) concentration is determined using ELISA kits available from Biosource International, Camarillo, Calif. Alternately, the TNF concentration can be determined by Origen® M-Series Immunoassay and read on an IGEN M-8 analyzer from IGEN International, Gaithersburg, Md. The immunoassay uses a human TNF capture and detection antibody pair from Biosource International, Camarillo, Calif. Results are expressed in pg/mL.
as §6

`Cc1nc(N)c2ncn(CCCCNC(=O)N[C@@H]3C[C@H]3c3ccccc3)c2c1C` (relative stereo) [Example 28, N-[4-(4-amino-6,7-dimethyl-1H-imidazo[4,5-c]pyridin-1-yl)butyl]-N′-[(1R*,2S*)-2-phenylcyclopropyl]urea]: in the test with interferon (α), the “Lowest Effective Concentration Interferon” value was “*”. For the same compound, the “Lowest Effective Concentration Tumor Necrosis Factor” value in test [1] was “*”.
For `CCOCc1nc2c(N)nc(C)cc2n1CCCCNC(=O)N[C@@H]1C[C@H]1c1ccccc1` (relative stereo) [Example 46, N-{4-[4-amino-2-(ethoxymethyl)-6-methyl-1H-imidazo[4,5-c]pyridin-1-yl]butyl}-N′-[(1R*,2S*)-2-phenylcyclopropyl]urea], the minimal effective concentration with interferon (α) is 3.33 µM; in test [1], 10 µM.
The corresponding values for `CCOCc1nc2c(N)nc(C)c(C)c2n1CCC1CCN(C(=O)N[C@@H]2C[C@H]2c2ccccc2)CC1` (relative stereo) [Example 67, 4-{2-[4-amino-2-(ethoxymethyl)-6,7-dimethyl-1H-imidazo[4,5-c]pyridin-1-yl]ethyl}-N-[(1R*,2S*)-2-phenylcyclopropyl]piperidine-1-carboxamide] are 1.11 µM and 3.33 µM.
In the case of `CCCCc1nc2c(N)nc(C)c(C)c2n1CCCCNC(=O)c1ccccc1` [Example 1, N-[4-(4-Amino-2-butyl-6,7-dimethyl-1H-imidazo[4,5-c]pyridin-1-yl)butyl]benzamide], the minimal effective concentration in the test on interferon (α) turned out to be 0.12 µM; in test [1], 1.11 µM.
Regarding `CCCCc1nc2c(N)nc(C)c(C)c2n1CCCCNS(=O)(=O)c1ccc(F)cc1` [Example 3, N-[4-(4-Amino-2-butyl-6,7-dimethyl-1H-imidazo[4,5-c]pyridin-1-yl)butyl]-4-fluorobenzenesulfonamide Hydrate], the minimal effective concentration in the test with interferon (α) amounted to 0.01 µM; in test [1], 0.37 µM.
On the same counts, the results for `CCCCc1nc2c(N)nc(C)c(C)c2n1CCCCNC(=S)Nc1ccccc1` [Example 5, N-[4-(4-Amino-2-butyl-6,7-dimethyl-1H-imidazo[4,5-c]pyridin-1-yl)butyl]-N′-phenylthiourea Hydrate] are 0.01 µM and 0.12 µM.
`Cc1nc(N)c2ncn(CCCCNC(=O)NC(C)C)c2c1C` [Example 16]: the “Lowest Effective Concentration Interferon” value in the test on interferon (α) is “*”. For the same compound, the “Lowest Effective Concentration Tumor Necrosis Factor” value in test [1] was “*”.
For the compound `Cc1nc(N)c2ncn(CCCCNC(=O)NC(C)(C)C)c2c1C` [Example 17], the minimal effective concentration in the test on interferon (α) turned out to be 30 µM. The “Lowest Effective Concentration Tumor Necrosis Factor” value in test [1] is listed as “*”.
Regarding `CCCCNC(=O)NCCCCn1cnc2c(N)nc(C)c(C)c21` [Example 18], in the test on interferon (α), the “Lowest Effective Concentration Interferon” value is “*”. Also, the “Lowest Effective Concentration Tumor Necrosis Factor” value in test [1] is “*”.
`Cc1nc(N)c2ncn(CCCCNC(=O)Nc3ccccc3)c2c1C` [Example 19]: the minimal effective concentration is 10 µM in the test on interferon (α) and 30 µM in test [1].
As for `Cc1nc(N)c2ncn(CCCCNC(=O)NC3CCCCC3)c2c1C` [Example 20], the minimal effective concentration in the test on interferon (α) was found to be 30 µM. Also, the “Lowest Effective Concentration Tumor Necrosis Factor” value in test [1] was “*”.
Turning to `Cc1nc(N)c2ncn(CCCCNC(=O)Nc3cccc(C#N)c3)c2c1C` [Example 21], the “Lowest Effective Concentration Interferon” value in the test with interferon (α) is recorded as “*”. Also, in test [1], the “Lowest Effective Concentration Tumor Necrosis Factor” value is on record as “*”.
For the compound `COc1cccc(NC(=O)NCCCCn2cnc3c(N)nc(C)c(C)c32)c1` [Example 22], in the test on interferon (α), the “Lowest Effective Concentration Interferon” value is “*”. Further, the “Lowest Effective Concentration Tumor Necrosis Factor” value in test [1] is “*”.
Turning to `CC(=O)c1cccc(NC(=O)NCCCCn2cnc3c(N)nc(C)c(C)c32)c1` [Example 23], in the test with interferon (α), the “Lowest Effective Concentration Interferon” value is listed as “*”. Besides, in test [1], the “Lowest Effective Concentration Tumor Necrosis Factor” value was “*”.
As to `Cc1nc(N)c2ncn(CCCCNC(=O)Nc3ccc(N(C)C)cc3)c2c1C` [Example 24], the minimal effective concentration in the test on interferon (α) worked out at 10 µM; in test [1], 30 µM.
In the case of `CSc1cccc(NC(=O)NCCCCn2cnc3c(N)nc(C)c(C)c32)c1` [Example 25], the “Lowest Effective Concentration Interferon” value in the test with interferon (α) is on record as “*”. The minimal effective concentration in test [1] is 3.33 µM.
For the compound `COc1ccc(NC(=O)NCCCCn2cnc3c(N)nc(C)c(C)c32)c(OC)c1` [Example 26], the minimal effective concentration (in the test with interferon (α); in test [1]) was 30 µM in each case.
Regarding `Cc1nc(N)c2ncn(CCCCNC(=O)N3CCOCC3)c2c1C` [Example 27, N-[4-(4-amino-6,7-dimethyl-1H-imidazo[4,5-c]pyridin-1-yl)butyl]morpholin-4-ylcarboxamide], the “Lowest Effective Concentration Interferon” value in the test on interferon (α) is on record as “*”. In addition, in test [1], the “Lowest Effective Concentration Tumor Necrosis Factor” value was “*”.
`Cc1nc(N)c2ncn(CCCCNC(=O)NS(=O)(=O)c3ccccc3)c2c1C` [Example 29]: the “Lowest Effective Concentration Interferon” value in the test with interferon (α) is on record as “*”. Moreover, the “Lowest Effective Concentration Tumor Necrosis Factor” value in test [1] is on record as “*”.
As to `Cc1ccc(S(=O)(=O)NC(=O)NCCCCn2cnc3c(N)nc(C)c(C)c32)cc1` [Example 30], in the test with interferon (α), the “Lowest Effective Concentration Interferon” value is “*”. In addition, in test [1], the “Lowest Effective Concentration Tumor Necrosis Factor” value is listed as “*”.
Regarding `Cc1nc(N)c2ncn(CCCCNC(=O)NS(=O)(=O)c3ccc(Cl)cc3)c2c1C` [Example 31], the “Lowest Effective Concentration Interferon” value in the test on interferon (α) is given as “*”. Moreover, in test [1], the “Lowest Effective Concentration Tumor Necrosis Factor” value is recorded as “*”.
For `CNC(=S)NCCCCn1cnc2c(N)nc(C)c(C)c21` [Example 32], the “Lowest Effective Concentration Interferon” value with interferon (α) is listed as “*”. Besides, the “Lowest Effective Concentration Tumor Necrosis Factor” value in test [1] is reported as “*”.
For `Cc1nc(N)c2ncn(CCCCNC(=S)Nc3ccccc3)c2c1C` [Example 33], the minimal effective concentration (with interferon (α); in test [1]) was 3.33 µM in each case.
For the compound `Cc1nc(N)c2ncn(CCCCNC(=S)NCCc3ccccc3)c2c1C` [Example 34], the “Lowest Effective Concentration Interferon” value with interferon (α) is recorded as “*”. For the same compound, the “Lowest Effective Concentration Tumor Necrosis Factor” value in test [1] is recorded as “*”.
As to `COc1ccc(NC(=S)NCCCCn2cnc3c(N)nc(C)c(C)c32)cc1` [Example 35], the minimal effective concentration with interferon (α) stood at 3.33 µM; in test [1], 30 µM.
On the same counts, the results for `CCOCc1nc2c(N)nc(C)cc2n1CCCCNC(=O)NC(C)C` [Example 36] are 1.11 µM and 30 µM.
In the case of `CCCCNC(=O)NCCCCn1c(COCC)nc2c(N)nc(C)cc21` [Example 38], the values for the minimal effective concentration (with interferon (α); in test [1]) were 3.33 µM and 30 µM, respectively.
On the same counts, the results for `CCOCc1nc2c(N)nc(C)cc2n1CCCCNC(=O)Nc1ccccc1` [Example 39] are 3.33 µM and 10 µM.
Take `CCOCc1nc2c(N)nc(C)cc2n1CCCCNC(=O)NCC(=O)OCC` [Example 40]: the minimal effective concentration with interferon (α) amounted to 3.33 µM. Moreover, the “Lowest Effective Concentration Tumor Necrosis Factor” value in test [1] is “*”.
For the compound `CCOCc1nc2c(N)nc(C)cc2n1CCCCNC(=O)Nc1cccc(C#N)c1` [Example 41], the minimal effective concentration in the test with interferon (α) was 10 µM; in test [1], 30 µM.
The corresponding values for `CCOCc1nc2c(N)nc(C)cc2n1CCCCNC(=O)Nc1cccc(C(C)=O)c1` [Example 42] are 10 µM and 10 µM.
On the same counts, the results for `CCOCc1nc2c(N)nc(C)cc2n1CCCCNC(=O)Nc1ccc(N(C)C)cc1` [Example 43] are 0.041 µM and 10 µM.
Consider `CCOCc1nc2c(N)nc(C)cc2n1CCCCNC(=O)Nc1cccc(SC)c1` [Example 44], for which the values for the minimal effective concentration (in the test with interferon (α); in test [1]) were 3.33 µM and 10 µM, respectively.
The corresponding values for `CCOCc1nc2c(N)nc(C)cc2n1CCCCNC(=O)Nc1ccc(OC)cc1OC` [Example 45] are 3.33 µM and 10 µM.
As for `CCOCc1nc2c(N)nc(C)cc2n1CCCCNC(=O)NS(=O)(=O)c1ccccc1` [Example 47], in the test with interferon (α), the “Lowest Effective Concentration Interferon” value is reported as “*”. The “Lowest Effective Concentration Tumor Necrosis Factor” value in test [1] is listed as “*”.
